Series [1] can be described thus: Drug release from electrospun PLGA or PLLA fibers in Franz diffusion cells (Example 2). It is filed as physicochemical. As to conditions: PBS 37° C. As for the experimental part: Poly(lactide-co-glycolide) (50:50) (PLGA) or poly(L-lactide) (PLLA) was dissolved in hexafluoroisopropanol (HFIP) and gently shaken for 3 hours till the polymer was completely dissolved. To this a solution of LH or mupirocin in HFIP was slowly added without any visible precipitation and shaken. The homogeneous drug/polymer solution was then electrospun as per the following parameters on a rotating mandrel. Differential Scanning Calorimetry (DSC) was conducted on the fibers to study drug inclusion. The dried scaffolds were sectioned into uniform weight discs and placed into Franz diffusion cells (Permegear Inc., Bethlehem, Pa.) with phosphate buffered saline at 37° C. rotated at 600 rpm. Samples were withdrawn at specific times and analyzed by HPLC. An equivalent amount of fresh PBS was replaced each time.

For series [2], the system named is Staphylococcus aureus ATCC 25923. The following applies: 5 μg mupirocin disc, interpretative criteria; cited from earlier work.
The subject of series [3] is mupirocin-sensitive bacteria. The following applies: all the strains of mupirocin-sensitive bacteria; cited from earlier work.

The text below walks through data of patent publication US20100166854A1, “ELECTROSPUN MATRICES FOR DELIVERY OF HYDROPHILIC AND LIPOPHILIC COMPOUNDS” (priority 2006, published 2010).

Counter-ions that a name gives are not always drawn.

As usually defined, the MIC is the smallest concentration in the dilution series that meets the test's criterion for growth inhibition. The molecule `C/C(=C\C(=O)OCCCCCCCCC(=O)O)C[C@@H]1OC[C@H](C[C@@H]2O[C@H]2[C@@H](C)[C@H](C)O)[C@@H](O)[C@H]1O` [mupirocin] registered a mupirocin cumulative release in series [1] (in the next 72 hours, PLLA 15% fibers, mupirocin 25% w/v of polymer) of 70 wt %. In series [1] (within an hour, PLLA 15% fibers, mupirocin 25% w/v of polymer), the “mupirocin initial burst release” value was determined as 36 wt %. Besides, the “zone diameter considered acceptable” value in series [2] is on record as 22 to 27 mm. Also, the MIC in series [3] was 0.06 to 0.5 mg/L.
For `CCN(CC)CC(=O)Nc1c(C)cccc1C` [LH, Lidocaine hydrochloride], in series [1] (within 48 hrs, PLGA 20% fibers, LH 100% w/v of polymer), the LH released is on record as 92%. Also, the LH burst release in series [1] (within the first hour, PLGA 20% fibers, LH 100% w/v of polymer) is listed as 80%.
